# Data published in patent US8536332B2, “Modulating signal transduction pathways with substituted pyridol [2,3-b] pyrazines” (Aeterna Zentaris GmbH, priority 2007, dated 2013).
# What was measured:
# [1] = system: Hct116; assay: XTT assay, anti-proliferative activity, Hct116; assay type: cell-based; details: Homo sapiens, HCT-116; 45 h incubation
# Experimental: (§1) The principle of this test is based on the intracellular reduction of the tetrazolium dye XTT (sodium 3′-[1-(phenylaminocarbonyl)-3,4-tetrazolium]bis(4-methoxy-6-nitro)benzenesulphonic acid, Sigma) to a formazan dye by mitochondrial dehydrogenases. The dye is formed only by metabolically active cells. Its photometrically measurable intensity is a quantitative indicator for the presence of living cells. The reduction in the dye formation as a result of incubation of the cells with substances serves as a parameter for the anti-proliferative activity.
# (§2) The tumour cell lines (ATCC) were seeded in 96-well microtitre plates in a defined cell count (5000 cells/well for Hct116; 10000 cells/well for MDA MB468), and incubated overnight at 37° C., 5% CO2 and 95% air humidity. The test substances were made up as stock solutions (10 mM) in DMSO. […] The cell plates were then incubated for 45 h at 37° C., 5% CO2 and 95% air humidity.
# (§3) For the detection reaction, the XTT substrate was mixed with PMS (N-methyldibenzopyrazine methylsulphate, Sigma) and added to the cells, to result in a final concentration of 325 μg of XTT/ml and 2.5 μg PMS/ml. The mixture was then incubated for 3 h at 37° C., 95% air humidity. Subsequently the formazan salt formed by cellular dehydrogenases was quantified at an absorption of 490 nm.
# (§4) The evaluation of the % inhibition values was done by means of the following formula from the values for the optical densities measured in each case at 490 nm:
# (§5) The controls were determined 8 fold, the substance samples 2 fold. 0% control contained no cells and the 100% control contained no test substance. The EC50 values were determined with GraphPadPrism.
# [2] = system: MDA-MB468; assay: XTT assay, anti-proliferative activity, MDA-MB468; assay type: cell-based; details: Homo sapiens, MDA-MB-468; 45 h incubation
# Experimental: as §1, §2, §3, §4, §5
EC50 [1] [µM],melting point [°C],EC50 [2] [µM],SMILES
< 5,216 to 219,< 5,"CCNC(=O)Nc1ccc2ncc(Nc3cccc(OC)c3)nc2n1 [Compound 89, 1-Ethyl-3-[3-(3-methoxy-phenylamino)-pyrido[2,3-b]pyrazin-6-yl]-urea]"
< 5,242,< 5,"CCNC(=S)Nc1ccc2ncc(-c3cnn(C)c3)nc2n1 [Compound 113, 1-Ethyl-3-[3-(1-methyl-1H-pyrazol-4-yl)-pyrido[2,3-b]pyrazin-6-yl]-thiourea]"
< 5,278,< 5,"CCNC(=S)Nc1ccc2ncc(Nc3ccc(C)cc3)nc2n1 [Compound 126, 1-Ethyl-3-(3-p-tolylamino-pyrido[2,3-b]pyrazin-6-yl)-thiourea]"
< 5,230,< 5,"CCNC(=S)Nc1ccc2ncc(-c3cc(OC)c(OC)c(OC)c3)nc2n1 [Compound 134, 1-Ethyl-3-[3-(3,4,5-trimethoxy-phenyl)-pyrido[2,3-b]pyrazin-6-yl]-thiourea]"
< 10,–,< 10,"CCNC(=S)Nc1ccc2ncc(-c3cc(Cl)c(O)c(Cl)c3)nc2n1 [Compound 138, 1-[3-(3,5-Dichloro-4-hydroxy-phenyl)-pyrido[2,3-b]pyrazin-6-yl]-3-ethyl-thiourea]"
< 5,–,< 5,"CCNC(=S)Nc1ccc2ncc(-c3ccc(N)c(OC)c3)nc2n1 [Compound 140, 1-[3-(4-Amino-3-methoxy-phenyl)-pyrido[2,3-b]pyrazin-6-yl]-3-ethyl-thiourea]"
< 10,285,< 5,"CCNC(=S)Nc1ccc2ncc(Nc3ccccc3)nc2n1 [Compound 148, 1-Ethyl-3-(3-phenylamino-pyrido[2,3-b]pyrazin-6-yl)-thiourea]"
< 5,269,< 5,"CCNC(=S)Nc1ccc2ncc(Nc3ccc(O)c(OC)c3)nc2n1 [Compound 150, 1-Ethyl-3-[3-(4-hydroxy-3-methoxy-phenylamino)-pyrido[2,3-b]pyrazin-6-yl]-thiourea]"
< 10,227 to 228,< 10,"CCNC(=O)Nc1ccc2ncc(-c3cccs3)nc2n1 [Compound 152, 1-Ethyl-3-(3-thiophen-2-yl-pyrido[2,3-b]pyrazin-6-yl)-urea]"
–,196,–,"COc1cc(Nc2cnc3ccc(NC(=S)NCCN4CCOCC4)nc3n2)cc(OC)c1OC [Compound 703, 1-(2-Morpholin-4-yl-ethyl)-3-[3-(3,4,5-trimethoxy-phenylamino)-pyrido[2,3-b]pyrazin-6-yl]-thiourea]"
–,195 to 198,–,"COc1cc(Nc2cnc3ccc(NC(=S)NCCCc4ccccc4)nc3n2)cc(OC)c1OC [Compound 704, 1-(3-Phenyl-propyl)-3-[3-(3,4,5-trimethoxy-phenylamino)-pyrido[2,3-b]pyrazin-6-yl]-thiourea]"
–,243 to 245,–,"COCCNC(=S)Nc1ccc2ncc(Nc3cc(OC)c(OC)c(OC)c3)nc2n1 [Compound 705, 1-(2-Methoxy-ethyl)-3-[3-(3,4,5-trimethoxy-phenylamino)-pyrido[2,3-b]pyrazin-6-yl]-thiourea]"
–,222,–,"CCNC(=S)Nc1ccc2ncc(N(C)c3cc(OC)c(OC)c(OC)c3)nc2n1 [Compound 706, 1-Ethyl-3-{3-[methyl-(3,4,5-trimethoxy-phenyl)-amino]-pyrido[2,3-b]pyrazin-6-yl}-thiourea]"
–,248,–,"COc1cc(Nc2cnc3ccc(NC(=S)NC4CC4)nc3n2)cc(OC)c1OC [Compound 707, 1-Cyclopropyl-3-[3-(3,4,5-trimethoxy-phenylamino)-pyrido[2,3-b]pyrazin-6-yl]-thiourea]"
–,228,–,"COc1cc(Nc2cnc3ccc(NC(=S)NCc4ccco4)nc3n2)cc(OC)c1OC [Compound 708, 1-Furan-2-ylmethyl-3-[3-(3,4,5-trimethoxy-phenylamino)-pyrido[2,3-b]pyrazin-6-yl]-thiourea]"
–,244,–,"CCOC(=O)CCNC(=S)Nc1ccc2ncc(Nc3cc(OC)c(OC)c(OC)c3)nc2n1 [Compound 709, 3-{3-[3-(3,4,5-Trimethoxy-phenylamino)-pyrido[2,3-b]pyrazin-6-yl]-thioureido}-propionic acid ethyl ester]"
–,246,–,"COCCCNC(=S)Nc1ccc2ncc(Nc3cc(OC)c(OC)c(OC)c3)nc2n1 [Compound 710, 1-(3-Methoxy-propyl)-3-[3-(3,4,5-trimethoxy-phenylamino)-pyrido[2,3-b]pyrazin-6-yl]-thiourea]"
–,248,–,"COc1cc(Nc2cnc3ccc(NC(=S)NC(C)c4ccccc4)nc3n2)cc(OC)c1OC (stereo not shown) [Compound 711, 1-(1-Phenyl-ethyl)-3-[3-(3,4,5-trimethoxy-phenylamino)-pyrido[2,3-b]pyrazin-6-yl]-thiourea]"
–,110,–,"CCNc1ccc2ncc(Nc3cc(OC)c(OC)c(OC)c3)nc2n1 [Compound 733, N*6*-Ethyl-N*3*- (3,4,5-trimethoxy-phenyl)-pyrido[2,3-b]pyrazine-3,6-diamine]"
–,240,–,"CCNC(=O)Nc1cnc2ccc(Cl)nc2n1 [Example 1, 1-(6-Chloro-pyrido[2,3-b]pyrazin-3-yl)-3-ethyl-urea]"
–,215,–,"CCNC(=S)Nc1cnc2ccc(Cl)nc2n1 [Example 2, 1-(6-Chloro-pyrido[2,3-b]pyrazin-3-yl)-3-ethyl-thiourea]"
